Laboratory results as given in patent publication US9302999B2, “Substituted triazoles as herbicides” (E. I. DU PONT DE NEMOURS AND COMPANY, priority 2012, dated 2016).

What was measured:
Type in all cases: in vivo
[1] = system: ducksalad (Heteranthera limosa); assay: Test B flooded paddy: ducksalad; conditions: Flood; 250 g ai/ha; applied to paddy water at 2-leaf stage; visually evaluated after 13 to 15 days
Description: (§1) Seeds selected from rice (Oryza sativa), sedge, umbrella (small-flower umbrella sedge Cyperus difformis), ducksalad (Heteranthera limosa), and barnyardgrass (Echinochloa crus-galli) were grown to the 2-leaf stage for testing. At time of treatment, test pots were flooded to 3 cm above the soil surface, treated by application of test compounds directly to the paddy water, and then maintained at that water depth for the duration of the test.
(§2) Treated plants and controls were maintained in a greenhouse for 13 to 15 days, after which time all species were compared to controls and visually evaluated. Plant response ratings, summarized in Table B, are based on a scale of 0 to 100 where 0 is no effect and 100 is complete control. A dash (-) response means no test result.

[2] = system: crabgrass, large (large crabgrass, Digitaria sanguinalis); assay: Test A pre-/postemergence: crabgrass, large; conditions: for Crabgrass, Large plant response rating: Postemergence; for Plant response rating, Crabgrass, Large: Preemergence
In short: (§3)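 Visual 0–100 injury ratings (0 no effect, 100 complete control) taken about ten days after treatment, relative to untreated controls. Preemergence treatment was a directed soil spray; postemergence plants were 2–10 cm tall at one- to two-leaf stage. Soil: loam/sand blend.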

[3] = system: barnyardgrass (Echinochloa crus-galli); assay: Test B flooded paddy: barnyardgrass; conditions: Flood; 250 g ai/ha; applied to paddy water at 2-leaf stage; visually evaluated after 13 to 15 days
Description: as §1, §2

[4] = system: rice (Oryza sativa); assay: Test B flooded paddy: rice; conditions: Flood; 250 g ai/ha; applied to paddy water at 2-leaf stage; visually evaluated after 13 to 15 days
Description: as §1, §2

[5] = system: sedge, umbrella (small-flower umbrella sedge Cyperus difformis); assay: Test B flooded paddy: sedge, umbrella; conditions: Flood; 250 g ai/ha; applied to paddy water at 2-leaf stage; visually evaluated after 13 to 15 days
Description: as §1, §2

[6] = system: barnyardgrass (Echinochloa crus-galli); assay: Test A pre-/postemergence: barnyardgrass; conditions: for Barnyardgrass plant response rating: Postemergence; for Plant response rating, Barnyardgrass: Preemergence
In short: as §3

[7] = system: morningglory (Ipomoea spp.); assay: Test A pre-/postemergence: morningglory; conditions: for Morningglory plant response rating: Postemergence; for Plant response rating, Morningglory: Preemergence
In short: as §3

[8] = system: wheat (Triticum aestivum); assay: Test A pre-/postemergence: wheat; conditions: for Wheat plant response rating: Postemergence; for Plant response rating, Wheat: Preemergence
In short: as §3

[9] = system: pigweed (Amaranthus retroflexus); assay: Test A pre-/postemergence: pigweed; conditions: for Pigweed plant response rating: Postemergence; for Plant response rating, Pigweed: Preemergence
In short: as §3

[10] = system: foxtail, giant (giant foxtail, Setaria faberii); assay: Test A pre-/postemergence: foxtail, giant; conditions: for Foxtail, Giant plant response rating: Postemergence; for Plant response rating, Foxtail, Giant: Preemergence
In short: as §3

[11] = system: velvetleaf (Abutilon theophrasti); assay: Test A pre-/postemergence: velvetleaf; conditions: for Velvetleaf plant response rating: Postemergence; for Plant response rating, Velvetleaf: Preemergence
In short: as §3

[12] = system: corn (Zea mays); assay: Test A pre-/postemergence: corn; conditions: for Corn plant response rating: Postemergence; for Plant response rating, Corn: Preemergence
In short: as §3

[13] = 125 g ai/ha, 0 to 100 scale, 0 is no effect, 100 is complete control
[14] = 500 g ai/ha, visual rating on 0 to 100 scale (0 no effect, 100 complete control), approximately ten days
[15] = 125 g ai/ha, 0 to 100 scale (0 no effect, 100 complete control)
[16] = 500 g ai/ha, 0 to 100 scale, 0 is no effect, 100 is complete control

COc1nn(-c2ccc(F)cc2)nc1C(=O)c1ccnc(C(F)(F)F)c1 [Compound 24]
Plant response rating, Ducksalad (0 to 100 scale, 0 is no effect, 100 is complete control) [1]: 0
Crabgrass, Large plant response rating [2, 13]: 10
Crabgrass, Large plant response rating [2, 14]: 20
Plant response rating, Crabgrass, Large [2, 15]: 0
Plant response rating, Crabgrass, Large [2, 16]: 20
Plant response rating, Barnyardgrass (0 to 100 scale, 0 is no effect, 100 is complete control) [3]: 0
Plant response rating, Rice (0 to 100 scale, 0 is no effect, 100 is complete control) [4]: 0
Plant response rating, Sedge, Umbrella (0 to 100 scale, 0 is no effect, 100 is complete control) [5]: 0
Barnyardgrass plant response rating [6, 13]: 0
Barnyardgrass plant response rating [6, 14]: 20
Plant response rating, Barnyardgrass [6, 15]: 0
Plant response rating, Barnyardgrass [6, 16]: 0
Morningglory plant response rating [7, 13]: 20
Morningglory plant response rating [7, 14]: 20
Plant response rating, Morningglory [7, 15]: 0
Plant response rating, Morningglory [7, 16]: 0
Wheat plant response rating [8, 13]: 10
Wheat plant response rating [8, 14]: 10
Plant response rating, Wheat [8, 15]: 0
Plant response rating, Wheat [8, 16]: 0
Pigweed plant response rating [9, 13]: 40
Pigweed plant response rating [9, 14]: 90
Plant response rating, Pigweed [9, 15]: 0
Plant response rating, Pigweed [9, 16]: 20
Foxtail, Giant plant response rating [10, 13]: 10
Foxtail, Giant plant response rating [10, 14]: 20
Plant response rating, Foxtail, Giant [10, 15]: 20
Plant response rating, Foxtail, Giant [10, 16]: 70
Velvetleaf plant response rating [11, 13]: 20
Velvetleaf plant response rating [11, 14]: 20
Plant response rating, Velvetleaf [11, 15]: 0
Plant response rating, Velvetleaf [11, 16]: 0
Corn plant response rating [12, 13]: 10
Corn plant response rating [12, 14]: 20
Plant response rating, Corn [12, 15]: 0
Plant response rating, Corn [12, 16]: 0

CSc1nn(-c2ccc(F)cc2)nc1Cc1ccnc(C(F)(F)F)c1 [Compound 27]
Plant response rating, Ducksalad (0 to 100 scale, 0 is no effect, 100 is complete control) [1]: 50
Crabgrass, Large plant response rating [2, 13]: 30
Crabgrass, Large plant response rating [2, 14]: 40
Plant response rating, Crabgrass, Large [2, 15]: 20
Plant response rating, Crabgrass, Large [2, 16]: 40
Plant response rating, Barnyardgrass (0 to 100 scale, 0 is no effect, 100 is complete control) [3]: 20
Plant response rating, Rice (0 to 100 scale, 0 is no effect, 100 is complete control) [4]: 10
Plant response rating, Sedge, Umbrella (0 to 100 scale, 0 is no effect, 100 is complete control) [5]: 20
Barnyardgrass plant response rating [6, 13]: 0
Barnyardgrass plant response rating [6, 14]: 20
Plant response rating, Barnyardgrass [6, 15]: 0
Plant response rating, Barnyardgrass [6, 16]: 10
Morningglory plant response rating [7, 13]: 40
Morningglory plant response rating [7, 14]: 90
Plant response rating, Morningglory [7, 15]: 0
Plant response rating, Morningglory [7, 16]: 0
Wheat plant response rating [8, 13]: 20
Wheat plant response rating [8, 14]: 40
Plant response rating, Wheat [8, 15]: 0
Plant response rating, Wheat [8, 16]: 0
Pigweed plant response rating [9, 13]: 90
Pigweed plant response rating [9, 14]: 100
Plant response rating, Pigweed [9, 15]: 0
Plant response rating, Pigweed [9, 16]: 80
Foxtail, Giant plant response rating [10, 13]: 30
Foxtail, Giant plant response rating [10, 14]: 40
Plant response rating, Foxtail, Giant [10, 15]: 10
Plant response rating, Foxtail, Giant [10, 16]: 80
Velvetleaf plant response rating [11, 13]: 40
Velvetleaf plant response rating [11, 14]: 50
Plant response rating, Velvetleaf [11, 15]: 0
Plant response rating, Velvetleaf [11, 16]: 0
Corn plant response rating [12, 13]: 20
Corn plant response rating [12, 14]: 20
Plant response rating, Corn [12, 15]: 0
Plant response rating, Corn [12, 16]: 0
